The record followed here is patent US8653087B2, “Pyrido [5, 4-D] pyrimidines as cell proliferation inhibitors” (Boehringer Ingelheim International GmbH, priority 2008, dated 2014).

B-Raf (V600E)-kinase, sequence (P15056 whole entry V600E): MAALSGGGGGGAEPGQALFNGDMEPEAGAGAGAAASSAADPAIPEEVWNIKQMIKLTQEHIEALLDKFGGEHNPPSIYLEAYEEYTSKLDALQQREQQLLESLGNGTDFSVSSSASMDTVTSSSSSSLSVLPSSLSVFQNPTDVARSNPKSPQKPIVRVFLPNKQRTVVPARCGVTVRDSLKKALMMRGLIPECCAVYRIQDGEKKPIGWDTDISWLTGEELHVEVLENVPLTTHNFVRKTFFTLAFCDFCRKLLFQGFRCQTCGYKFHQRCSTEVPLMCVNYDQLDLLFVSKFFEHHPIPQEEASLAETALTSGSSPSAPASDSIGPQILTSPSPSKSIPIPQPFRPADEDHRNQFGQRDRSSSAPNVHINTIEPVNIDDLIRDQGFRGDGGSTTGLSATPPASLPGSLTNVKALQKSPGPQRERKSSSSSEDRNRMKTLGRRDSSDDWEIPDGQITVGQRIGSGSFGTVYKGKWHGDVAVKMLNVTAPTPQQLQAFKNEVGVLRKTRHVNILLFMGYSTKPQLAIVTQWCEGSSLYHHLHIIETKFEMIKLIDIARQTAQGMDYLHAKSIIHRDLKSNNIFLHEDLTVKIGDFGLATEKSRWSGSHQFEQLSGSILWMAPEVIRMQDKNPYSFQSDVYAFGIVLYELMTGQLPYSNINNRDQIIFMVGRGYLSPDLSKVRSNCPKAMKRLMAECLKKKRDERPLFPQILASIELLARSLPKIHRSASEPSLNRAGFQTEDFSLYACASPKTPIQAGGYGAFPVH

The target in the assay is B-Raf (V600E)-kinase (Homo sapiens (Human), UniProt P15056, V600E). The experiment in a line: Kinase test B-RAF (V600E). It is filed as biochemical. The note with it: B-RAF (V600E) kinase test, 250 μM ATP. An outline of the steps:
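Read-out is DELFIA europium TRF of phospho-MEK (Ser217/221) on biotinylated MEK1 bound to streptavidin plates, IC50 from dose-response. Reaction ran 60 min at RT with 250 μM ATP, after a 24 h RT preincubation of compound with B-Raf (V600E) kinase, 5% DMSO final.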
The molecule `COc1ccc(NC(=O)c2ccc(C(F)(F)F)c(Nc3ncnc4cnc(N5CCOCC5)nc34)c2)cc1C(F)(F)F` [III-50] gave an IC50 of 5 nM. That is a single-digit nanomolar value.

For the molecule `COc1ccc(NC(=O)c2ccc(C(F)(F)F)c(Nc3ncnc4cnc(N5CCCC5)nc34)c2)cc1C(F)(F)F` [III-51], the IC50 is 381 nM. As for `COc1ccc(NC(=O)c2ccc(C(F)(F)F)c(Nc3ncnc4cnc(NCCN(C)C)nc34)c2)cc1C(F)(F)F` [III-52], it took 2230 nM to reach half-maximal inhibition (IC50). This IC50 is about 5.9-fold higher than that of the molecule before. Next, `COc1ccc(NC(=O)c2ccc(C(F)(F)F)c(Nc3ncnc4cnc(NCCN5CCOCC5)nc34)c2)cc1C(F)(F)F` [III-53]: 318 nM; `COc1ccc(NC(=O)c2ccc(C(F)(F)F)c(Nc3ncnc4cnc(N(C)C)nc34)c2)cc1C(F)(F)F` [III-54]: 543 nM; `COCCN(C)c1ncc2ncnc(Nc3cc(C(=O)Nc4cc(C(C)(C)C)on4)ccc3C(F)(F)F)c2n1` [III-55]: over 150 nM. Next, `CN(C)CCN(C)c1ncc2ncnc(Nc3cc(C(=O)Nc4cc(C(C)(C)C)on4)ccc3C(F)(F)F)c2n1` [III-56]: 1990 nM; `CC(C)(C)c1cc(NC(=O)c2ccc(C(F)(F)F)c(Nc3ncnc4cnc(N5CCCCCC5)nc34)c2)no1` [III-57]: 1830 nM; `CN1CCCN(c2ncc3ncnc(Nc4cc(C(=O)Nc5cc(C(C)(C)C)on5)ccc4C(F)(F)F)c3n2)CC1` [III-58]: 88 nM.

`CN(CCN1CCCC1)c1ncc2ncnc(Nc3cc(C(=O)Nc4cc(C(C)(C)C)on4)ccc3C(F)(F)F)c2n1` [III-59]: inhibition was half-maximal at 835 nM (IC50).

For the molecule `CN1CCN(c2ncc3ncnc(Nc4cc(C(=O)Nc5cc(C(C)(C)C)on5)ccc4C(F)(F)F)c3n2)CC1` [III-60], inhibition was half-maximal at 230 nM (IC50). The value for `CC(C)(C)c1cc(NC(=O)c2ccc(C(F)(F)F)c(Nc3ncnc4cnc(N5CCCCC5)nc34)c2)no1` [III-61] was 2240 nM; that for `CC(C)(C)c1cc(NC(=O)c2ccc(C(F)(F)F)c(Nc3ncnc4cnc(NCCCN5CCOCC5)nc34)c2)no1` [III-62] was 546 nM; that for `CC(C)(C)c1cc(NC(=O)c2ccc(C(F)(F)F)c(Nc3ncnc4cnc(N5CCOCC5)nc34)c2)no1` [III-63] was 13 nM. Next, `CC(C)(C)c1cc(NC(=O)c2ccc(C(F)(F)F)c(Nc3ncnc4cnc(N5CCCC5)nc34)c2)no1` [III-64]: over 1000 nM; `CN(C)CCNc1ncc2ncnc(Nc3cc(C(=O)Nc4cc(C(C)(C)C)on4)ccc3C(F)(F)F)c2n1` [III-65]: 4170 nM; `CC(C)(C)c1cc(NC(=O)c2ccc(C(F)(F)F)c(Nc3ncnc4cnc(NCCN5CCOCC5)nc34)c2)no1` [III-66]: 1140 nM. The value for `COCCN(C)c1ncc2ncnc(Nc3cc(C(=O)Nc4cc(C(C)(C)C)on4)ccc3Cl)c2n1` [III-67] was 5 nM. As to `CC(C)(C)c1cc(NC(=O)c2ccc(Cl)c(Nc3ncnc4cnc(N5CCCCCC5)nc34)c2)no1` [III-68], the IC50 turned out to be 8 nM. This IC50 is about 1.6-fold higher than that of the molecule before.

`CN(C)c1ncc2ncnc(Nc3cc(C(=O)Nc4cc(C(C)(C)C)on4)ccc3Cl)c2n1` [III-69]: inhibition was half-maximal at 6 nM (IC50). On to `CN1CCCN(c2ncc3ncnc(Nc4cc(C(=O)Nc5cc(C(C)(C)C)on5)ccc4Cl)c3n2)CC1` [III-70], for which half-maximal inhibition (IC50) required 4 nM.

Turning to `CN(CCN1CCCC1)c1ncc2ncnc(Nc3cc(C(=O)Nc4cc(C(C)(C)C)on4)ccc3Cl)c2n1` [III-71], the IC50 was determined as 3 nM.

Take `CN1CCN(c2ncc3ncnc(Nc4cc(C(=O)Nc5cc(C(C)(C)C)on5)ccc4Cl)c3n2)CC1` [III-72]: the half-inhibitory concentration (IC50) was 4 nM. Next, `CC(C)(C)c1cc(NC(=O)c2ccc(Cl)c(Nc3ncnc4cnc(N5CCCCC5)nc34)c2)no1` [III-73]: 4 nM; `CC(C)(C)c1cc(NC(=O)c2ccc(Cl)c(Nc3ncnc4cnc(NCCCN5CCOCC5)nc34)c2)no1` [III-74]: 1 nM.

As for `CC(C)(C)c1cc(NC(=O)c2ccc(Cl)c(Nc3ncnc4cnc(N5CCOCC5)nc34)c2)no1` [III-75], 1 nM corresponded to half-maximal inhibition (IC50). Molecule `CC(C)(C)c1cc(NC(=O)c2ccc(Cl)c(Nc3ncnc4cnc(N5CCCC5)nc34)c2)no1` [III-76] registered an IC50 of 11 nM.

Regarding `CN(C)CCNc1ncc2ncnc(Nc3cc(C(=O)Nc4cc(C(C)(C)C)on4)ccc3Cl)c2n1` [III-77], the IC50 was determined as 2 nM. Next, `CC(C)(C)c1cc(NC(=O)c2ccc(Cl)c(Nc3ncnc4cnc(NCCN5CCOCC5)nc34)c2)no1` [III-78]: 2 nM; `CN(C)CCN(C)c1ncc2ncnc(Nc3cc(C(=O)Nc4cc(C(C)(C)C)on4)ccc3Cl)c2n1` [III-79]: 1 nM. Molecule `COCCN(C)c1ncc2ncnc(Nc3cc(C(=O)Nc4cc(C(C)(C)C)on4)ccc3OC)c2n1` [III-80] displayed a half-maximal inhibitory concentration (IC50) of 6 nM.

In the case of `COc1ccc(C(=O)Nc2cc(C(C)(C)C)on2)cc1Nc1ncnc2cnc(N3CCOCC3)nc12` [III-81], the IC50 was determined as 2 nM. This IC50 lies about 3-fold lower than the previous one. The value for `COc1ccc(C(=O)Nc2cc(C(C)(C)C)on2)cc1Nc1ncnc2cnc(N3CCCC3)nc12` [III-82] was 20 nM; that for `COc1ccc(C(=O)Nc2cc(C(C)(C)C)on2)cc1Nc1ncnc2cnc(N(C)C)nc12` [III-83] was 8 nM; that for `COCCN(C)c1ncc2ncnc(Nc3cc(C(=O)Nc4cc(C(C)(C)C)on4)ccc3F)c2n1` [III-84] was 2 nM. The value for `CC(C)(C)c1cc(NC(=O)c2ccc(F)c(Nc3ncnc4cnc(N5CCCCCC5)nc34)c2)no1` [III-85] was 7 nM; that for `CN1CCCN(c2ncc3ncnc(Nc4cc(C(=O)Nc5cc(C(C)(C)C)on5)ccc4F)c3n2)CC1` [III-86] was under 1 nM. The value for `COc1ccc(C(=O)Nc2cc(C(C)(C)C)on2)cc1Nc1ncnc2cnc(N3CCCCCC3)nc12` [III-87] was 3 nM; that for `CC(C)(C)c1cc(NC(=O)c2ccc(F)c(Nc3ncnc4cnc(N5CCCCC5)nc34)c2)no1` [III-88] was 5 nM; that for `CC(C)(C)c1cc(NC(=O)c2ccc(F)c(Nc3ncnc4cnc(N5CCOCC5)nc34)c2)no1` [III-89] was 4 nM. Consider `CC(C)(C)c1cc(NC(=O)c2ccc(F)c(Nc3ncnc4cnc(N5CCCC5)nc34)c2)no1` [III-90], for which inhibition was half-maximal at 5 nM (IC50). The value for `CN(C)CCNc1ncc2ncnc(Nc3cc(C(=O)Nc4cc(C(C)(C)C)on4)ccc3F)c2n1` [III-91] was 1 nM; that for `CC(C)(C)c1cc(NC(=O)c2ccc(F)c(Nc3ncnc4cnc(NCCN5CCOCC5)nc34)c2)no1` [III-92] was 1 nM. Molecule `CN(C)c1ncc2ncnc(Nc3cc(C(=O)Nc4cc(C(C)(C)C)on4)ccc3F)c2n1` [III-93] came in with a 50% inhibitory concentration (IC50) of 1 nM. Next, `CNc1ncc2ncnc(Nc3cc(C(=O)Nc4cc(C(C)(C)C)on4)ccc3F)c2n1` [III-94]: 6 nM. Next, `COc1ccc(C(=O)Nc2cc(C(C)(C)C)on2)cc1Nc1ncnc2cnc(N3CCN(C)CC3)nc12` [III-95]: 2 nM; `COc1ccc(C(=O)Nc2cc(C(C)(C)C)on2)cc1Nc1ncnc2cnc(N3CCCN(C)CC3)nc12` [III-96]: 2 nM; `COc1ccc(C(=O)Nc2cc(C(C)(C)C)on2)cc1Nc1ncnc2cnc(N(C)CCN3CCCC3)nc12` [III-97]: 4 nM. Regarding `COCCN(C)c1ncc2ncnc(Nc3cc(C(=O)Nc4cc(CN5CCCC5)cc(C(F)(F)F)c4)ccc3C)c2n1` [III-98], the half-maximal inhibitory concentration (IC50) came to 2 nM. The value for `Cc1ccc(C(=O)Nc2cc(CN3CCCC3)cc(C(F)(F)F)c2)cc1Nc1ncnc2cnc(N3CCSCC3)nc12` [III-99] was 5 nM. Turning to `Cc1ccc(C(=O)Nc2cc(CN3CCCC3)cc(C(F)(F)F)c2)cc1Nc1ncnc2cnc(N3CCC3)nc12` [III-100], half-maximal inhibition (IC50) was put at 4 nM. Next, `Cc1ccc(C(=O)Nc2cc(CN3CCCC3)cc(C(F)(F)F)c2)cc1Nc1ncnc2cnc(NCCF)nc12` [III-101]: 1 nM; `Cc1ccc(C(=O)Nc2cc(CN3CCCC3)cc(C(F)(F)F)c2)cc1Nc1ncnc2cnc(N3CCC(F)(F)CC3)nc12` [III-102]: 4 nM; `Cc1ccc(C(=O)Nc2cc(CN3CCCC3)cc(C(F)(F)F)c2)cc1Nc1ncnc2cnc(N3CCC(F)CC3)nc12` [III-103]: 2 nM. The value for `Cc1ccc(C(=O)Nc2cc(CN3CCCC3)cc(C(F)(F)F)c2)cc1Nc1ncnc2cnc(NCC3CCOC3)nc12` (stereo not drawn) [III-104] was 1 nM. Next, `Cc1ccc(C(=O)Nc2cc(CN3CCCC3)cc(C(F)(F)F)c2)cc1Nc1ncnc2cnc(NCc3ccccc3)nc12` [III-105]: 3 nM; `Cc1ccc(C(=O)Nc2cc(CN3CCCC3)cc(C(F)(F)F)c2)cc1Nc1ncnc2cnc(N3CCCCC3)nc12` [III-106]: 2 nM. `Cc1ccc(C(=O)Nc2cc(CN3CCCC3)cc(C(F)(F)F)c2)cc1Nc1ncnc2cnc(N3CCOCC3)nc12` [III-108] yielded an IC50 of under 1 nM. `Cc1ccc(C(=O)Nc2cc(CN3CCCC3)cc(C(F)(F)F)c2)cc1Nc1ncnc2cnc(N3CCCC3)nc12` [III-109] had a concentration for half-maximal inhibition (IC50) of 2 nM.

As for `COCCNc1ncc2ncnc(Nc3cc(C(=O)Nc4cc(CN5CCCC5)cc(C(F)(F)F)c4)ccc3C)c2n1` [III-110], half-maximal inhibition (IC50) was put at 1 nM. Next, `Cc1ccc(C(=O)Nc2cc(CN3CCCC3)cc(C(F)(F)F)c2)cc1Nc1ncnc2cnc(NC3CC3)nc12` [III-111]: under 1 nM; `Cc1ccc(C(=O)Nc2cc(CN3CCCC3)cc(C(F)(F)F)c2)cc1Nc1ncnc2cnc(NCC(C)C)nc12` [III-112]: 2 nM. Next, `Cc1ccc(C(=O)Nc2cc(CN3CCCC3)cc(C(F)(F)F)c2)cc1Nc1ncnc2cnc(NCc3ccncc3)nc12` [III-114]: 2 nM.

On to `Cc1ccc(C(=O)Nc2cc(CN3CCCC3)cc(C(F)(F)F)c2)cc1Nc1ncnc2cnc(N(C)C)nc12` [III-115], for which the IC50 was 2 nM. The value for `CNc1ncc2ncnc(Nc3cc(C(=O)Nc4cc(CN5CCCC5)cc(C(F)(F)F)c4)ccc3C)c2n1` [III-116] was under 1 nM; that for `CCN(CC)c1ncc2ncnc(Nc3cc(C(=O)Nc4cc(CN5CCCC5)cc(C(F)(F)F)c4)ccc3C)c2n1` [III-117] was 2 nM.
